Measurements taken from patent US8481263B2, “Bead-ligand-nascent protein complexes” (Ambergen, priority 2007, dated 2013).

Target: T1, PKCα (Homo sapiens, UniProt P17252)
T1 construct: isolate and photo-release endogenous PKCa from the undiluted detergent fractionated HeLa cell extracts; endogenous in cells; host or cells: HeLa cells (ATCC)
Experiment: PKCα sub-cellular translocation measured by kinase activity after photocleavable antibody isolation
Type: cell-based
Details: cultured HeLa cells stimulated with 200 nM PMA for 5 min; detergent fractionated; kinase activity of PC-antibody isolated PKCα; n=4
Description: Cultured HeLa cells (ATCC; Manassas, Va.) were stimulated for 5 min with 200 nM Phorbol-12-Myristate-13-Acetate (PMA; EMD Biosciences, Inc., San Diego, Calif.) and subsequently detergent fractionated into sub-cellular compartments according to reported procedures [Ramsby et al. (1994) Electrophoresis 15, 265-277; Ramsby & Makowski. (1999) Methods Mol Biol 112, 53-66; Chiang et al. (2000) J Biochem Biophys Methods 46, 53-68]. PMA is a potent activator of PKCα and is well known to cause translocation of the kinase from the cytosolic to the membrane sub-cellular compartments [Ross & Joyner. (1997) Endothelium 5, 321-332; Bazan & Rapoport. (1996) J Pharmacol Toxicol Methods 36, 87-95; Yazlovitskaya & Melnykovych. (1995) Cancer Lett 88, 179-183].
A photocleavable antibody conjugated solid affinity matrix was prepared and used to isolate and photo-release the antigen into solution essentially as described in Example 2 except that in this case, a photocleavable anti-IgG secondary antibody was used to immobilize the unlabeled primary antibody onto the solid affinity matrix. This antibody affinity matrix was used to isolate and photo-release endogenous PKCa from the undiluted detergent fractionated HeLa cell extracts. […]

CCCCCCCCCCCCCC(=O)O[C@@H]1[C@@H](C)[C@@]2(O)[C@@H](C=C(CO)C[C@]3(O)C(=O)C(C)=C[C@@H]23)[C@@H]2C(C)(C)[C@]12OC(C)=O [PMA, Phorbol-12-Myristate-13-Acetate]
PKCα distribution, cytosol: 16±4% | PKCα distribution, membrane: 84±3%
